Test results published in patent US20250170120A1, “ALLOSTERIC STING MODULATORS AND METHODS OF USE” (THE BOARD OF REGENTS OF THE UNIVERSITY OF TEXAS SYSTEM, priority 2022, published 2025).

Molecular target: T1, STING (Homo sapiens, UniProt Q86WV6, G230A/H232R/R293Q/R71H)
T1 construct: host or cells: THP-1 / THP1-Dual / THP1-Lucia ISG cells
Experiment: STING pathway activity in THP1-Dual/THP-1 cells upon cGAMP or MSA-2 stimulation (luciferase/interferon readout)
Type: cell-based
Settings: THP-1 cells; for inhibition at 10 µM: 10 μM compound, cGAMP (100 μM) or MSA-2 (10 μM) stimulation; for Induction of interferon production in the presence of MSA2: 10 μM MSA2, increasing concentrations of compound
From the text: Methods of measuring STING activity and by extension, the activity of the compounds discussed herein, are known in the art. As an example, the STING pathway activity may be evaluated using reporter cell lines where a reporter gene (i.e., luciferase, GFP) is expressed under direct or indirect control of interferon response elements. For example, in an exemplary embodiment, the STING pathway can be measured using THP1-Dual™ cells (InvivoGen) which express the Lucia gene (a secreted luciferase reporter gene) under the control of an ISG54 minimal promoter in conjunction with five IFN-stimulated response elements. The STING pathway, when activated, stimulates interferon release which, in this model, will increase luciferase expression in a detectable manner. When inhibited, interferon release will be decreased, reducing luciferase expression in a detectable manner. The compounds can optionally be tested in the presence of external stimulation (i.e., using cGAMP, a natural agonist of STING, or MSA-2).
The STING pathway activity was evaluated in THP1-Dual™ cells (Invivogen). […] After incubating at 37° C. for 16 hours, the luciferase activity was measured by QUANTI-Luc™ (Invivogen).

T1 sequence (Q86WV6 whole entry R71H/G230A/H232R/R293Q): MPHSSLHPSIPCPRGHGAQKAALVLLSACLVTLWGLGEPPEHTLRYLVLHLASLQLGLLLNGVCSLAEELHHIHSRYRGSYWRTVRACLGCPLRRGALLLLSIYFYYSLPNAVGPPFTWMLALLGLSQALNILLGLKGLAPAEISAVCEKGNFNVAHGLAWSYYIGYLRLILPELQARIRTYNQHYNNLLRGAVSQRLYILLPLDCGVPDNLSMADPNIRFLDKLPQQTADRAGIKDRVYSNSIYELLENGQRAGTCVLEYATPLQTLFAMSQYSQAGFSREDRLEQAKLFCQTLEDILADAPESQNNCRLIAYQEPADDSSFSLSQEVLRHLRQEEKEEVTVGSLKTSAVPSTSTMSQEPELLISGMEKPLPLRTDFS

Structure (SMILES)	inhibition at 10 µM [%]	Induction of interferon production in the presence of MSA2
CC1(C)C(=O)N(Cc2c(F)cccc2C(N)=O)c2cc(C(=O)NCc3c(F)cc(F)cc3F)ccc21 [UT126, 1-(2-carbamoyl-6-fluorobenzyl)-3,3-dimethyl-2-oxo-N-(2,4,6-trifluorobenzyl) indoline-6-carboxamide]	< 50	–
CC1(C)C(=O)N(Cc2c(F)cc(F)cc2F)c2cc(C(=O)NCc3cc4ccccc4[nH]3)ccc21 [UT141, N-((1H-indol-2-yl)methyl)-3,3-dimethyl-2-oxo-1-(2,4,6-trifluorobenzyl)indoline-6-carboxamide]	> 50	inhibited in a dose dependent manner
CC1(C)C(=O)N(Cc2c(F)cccc2C(F)(F)F)c2cc(C(=O)NCc3cc4ccccc4[nH]3)ccc21 [UT142, N-((1H-indol-2-yl)methyl)-1-(2-fluoro-6-(trifluoromethyl)benzyl)-3,3-dimethyl-2-oxoindoline-6-carboxamide]	> 50	inhibited in a dose dependent manner
CC1(C)C(=O)N(Cc2c(Oc3cc(F)cc(F)c3)cccc2C(F)(F)F)c2cc(C(F)(F)F)ccc21 [UT149, 1-(2-(3,5-difluorophenoxy)-6-(trifluoromethyl)benzyl)-3,3-dimethyl-6-(trifluoromethyl)indolin-2-one]	< 50	–
Cc1nn(C)c(CN2C(=O)C(C)[C@@H](C)c3ccc(C(=O)NCc4cc5ccccc5[nH]4)cc32)c1Br (stereo partly drawn) [UT151, (4R)-N-((1H-indol-2-yl)methyl)-1-((4-bromo-1,3-dimethyl-1H-pyrazol-5-yl)methyl)-3,4-dimethyl-2-oxo-1,2,3,4-tetrahydroquinoline-7-carboxamide]	< 50	–
CC1C(=O)N(Cc2c(F)cccc2C(F)(F)F)c2cc(C(=O)NCc3c(F)cc(F)cc3F)ccc2[C@@H]1C (stereo partly drawn) [UT153, (4R)-1-(2-fluoro-6-(trifluoromethyl)benzyl)-3,4-dimethyl-2-oxo-N-(2,4,6-trifluorobenzyl)-1,2,3,4-tetrahydroquinoline-7-carboxamide]	< 50	–
CC1C(=O)N(Cc2c(F)cc(F)cc2F)c2cc(C(=O)NCc3cc4ccccc4[nH]3)ccc2[C@@H]1C (stereo partly drawn) [UT156, (4R)-N-((1H-indol-2-yl)methyl)-3,4-dimethyl-2-oxo-1-(2,4,6-trifluorobenzyl)-1,2,3,4-tetrahydroquinoline-7-carboxamide]	> 50	–
Cc1nn(C)c(CN2C(=O)C(C)(C)c3ccc(C(=O)NCc4cc5ccccc5[nH]4)cc32)c1C [UT157, N-((1H-indol-2-yl)methyl)-3,3-dimethyl-2-oxo-1-((1,3,4-trimethyl-1H-pyrazol-5-yl)methyl)indoline-6-carboxamide]	< 50	inhibited in a dose dependent manner
CC1C(=O)N(Cc2c(F)cccc2C(F)(F)F)c2cc(C(=O)NCc3cc4ccccc4[nH]3)ccc2[C@@H]1C (stereo partly drawn) [UT158, (4R)-N-((1H-indol-2-yl)methyl)-1-(2-fluoro-6-(trifluoromethyl)benzyl)-3,4-dimethyl-2-oxo-1,2,3,4-tetrahydroquinoline-7-carboxamide]	< 50	–
Cc1nn(C)c(CN2C(=O)C(C)[C@@H](C)c3ccc(C(=O)NCc4cc5ccccc5[nH]4)cc32)c1C (stereo partly drawn) [UT160, (4R)-N-((1H-indol-2-yl)methyl)-3,4-dimethyl-2-oxo-1-((1,3,4-trimethyl-1H-pyrazol-5-yl)methyl)-1,2,3,4-tetrahydroquinoline-7-carboxamide]	< 50	–
CC1(C)C(=O)N(Cc2c(Oc3cc(F)cc(F)c3)cccc2C(F)(F)F)c2cc(C#N)ccc21 [UT200, 1-(2-(3,5-difluorophenoxy)-6-(trifluoromethyl)benzyl)-3,3-dimethyl-2-oxoindoline-6-carbonitrile]	> 50	–
CC1(C)C(=O)N(Cc2c(Oc3cc(F)cc(F)c3)cccc2C(F)(F)F)c2ccc(C#N)cc21 [UT201, 1-(2-(3,5-difluorophenoxy)-6-(trifluoromethyl)benzyl)-3,3-dimethyl-2-oxoindoline-5-carbonitrile]	< 50	–
